# Reference: the NIST ThermoML archive (doi:10.1016/j.jct.2005.11.005)
# Numbers after ± are expanded uncertainties.
# How the values were obtained:
# [1] = DTA; for Normal melting temperature: Crystal
# [2] = Molar enthalpy of transition or fusion; conditions: Crystal; DSC
Normal melting temperature [1] [°C],Molar enthalpy of transition or fusion [2] [kJ/mol],Glass transition temperature ([1]; Glass) [°C],Structure (SMILES)
99.10 ± 0.5,110 ± 2.8,,O.O.OC[C@H]1O[C@H](O[C@H]2O[C@H](CO)[C@@H](O)[C@H](O)[C@H]2O)[C@H](O)[C@@H](O)[C@@H]1O [D-(+)-trehalose dihydrate]
209.4 ± 0.5,53.4 ± 2.8,120.0 ± 2,OC[C@H]1O[C@H](O[C@H]2O[C@H](CO)[C@@H](O)[C@H](O)[C@H]2O)[C@H](O)[C@@H](O)[C@@H]1O [α-trehalose]
